Laboratory results taken from patent EP3915971A1, “PHENYL-S(O)N-PHENYLAMIDINES AND THE USE THEREOF AS FUNGICIDES” (Bayer Aktiengesellschaft, priority 2020, dated 2021).

Legend:
[1] = LogP measurement by HPLC on reversed phase columns (EEC directive 79/831 Annex V.A8); format: physicochemical; conditions: reversed phase HPLC columns
Experimental: Measurement of LogP values was performed according to EEC directive 79/831 Annex V.A8 by HPLC (High Performance Liquid Chromatography) on reversed phase columns with the following methods: • ^[a] LogP value is determined by measurement of LC-UV, in an acidic range, with 0.1% formic acid in water and acetonitrile as eluent (linear gradient from 10% acetonitrile to 95% acetonitrile). • ^[b] LogP value is determined by measurement of LC-UV, in a neutral range, with 0.001 molar ammonium acetate solution in water and acetonitrile as eluent (linear gradient from 10% acetonitrile to 95% acetonitrile). • ^[c] LogP value is determined by measurement of LC-UV, in an acidic range, with 0.1% phosphoric acid and acetonitrile as eluent (linear gradient from 10% acetonitrile to 95% acetonitrile).
If more than one LogP value is available within the same method, all the values are given and separated by "+". […]

[2] = system: Phakospora pachyrhizi; assay: in vivo preventive test on Phakospora pachyrhizi (soybean rust); conditions: Glycine max, 264 h; 500 ppm of active ingredient; preventive spray on young soybean plants, inoculation after 24 hours, evaluated 11 days after inoculation; 0% = control plants, 100% = no disease; read-out: efficacy
Experimental: Example A: in vivo preventive test on Phakospora pachyrhizi (soybean rust) [table] The active ingredients were made soluble and homogenized in a mixture of Dimethyl sulfoxide/Acetone/ /Tween® 80 and then diluted in water to the desired concentration. The young plants of soybean were treated by spraying the active ingredient prepared as described above. Control plants were treated only with an aqueous solution of Acetone/Dimethyl sulfoxide/ Tween® 80. After 24 hours, the plants were contaminated by spraying the leaves with an aqueous suspension of Phakospora pachyrhizi spores. The contaminated soybean plants were incubated for 24 hours at 24°C and at 100% relative humidity and then for 10 days at 24°C and at 70-80% relative humidity. The test was evaluated 11 days after the inoculation. 0% means an efficacy which corresponds to that of the control plants while an efficacy of 100% means that no disease was observed.

[3] = method [a]: LC-UV, acidic range, 0.1% formic acid in water and acetonitrile as eluent (linear gradient 10% to 95% acetonitrile)

| Structure (SMILES) | chromatographic logP [1, 3] | chromatographic logP ([1]; method [b]: LC-UV, neutral range, 0.001 molar ammonium acetate solution in water and acetonitrile as eluent (linear gradient 10% to 95% acetonitrile)) | pest or weed control at 500 ppm [2] |
| --- | --- | --- | --- |
| CCN(C)C=Nc1cc(C)c(Sc2ccccc2Cl)cc1C [Example I-005, N'-[4-[(2-chlorophenyl)thio]-2,5-dimethylphenyl]-N-ethyl-N-methylmethanimidamide] | 2.16 |  | ≥ 70% |
| CCN(C)C=Nc1cc(C)c(Sc2ccccc2C)cc1Cl [Example I-006, N'-[2-chloro-5-methyl-4-[(2-methylphenyl)thio]phenyl]-N-ethyl-N-methylmethanimidamide] | 1.77 |  | ≥ 70% |
| CCN(C)C=Nc1cc(C)c(Sc2ccccc2Cl)cc1Cl [Example I-007, N'-[2-chloro-4-[(2-chlorophenyl)thio]-5-methylphenyl]-N-ethyl-N-methylmethanimidamide] | 1.83 |  | ≥ 70% |
| CCN(C)C=Nc1cc(C)c(Sc2ccccc2F)cc1Cl [Example I-008, N'-[2-chloro-4-[(2-fluorophenyl)thio]-5-methylphenyl]-N-ethyl-N-methylmethanimidamide] | 1.6 |  | ≥ 70% |
| CCN(C)C=Nc1cc(C)c(S(=O)(=O)c2ccccc2Cl)cc1C [Example I-020, N'-[4-(2-chlorophenyl)sulfonyl-2,5-dimethylphenyl]-N-ethyl-N-methylmethanimidamide] | 1.18 |  | ≥ 70% |
| CCN(C)C=Nc1cc(F)c(Sc2ccccc2)cc1C [Example I-021, N-ethyl-N'-(5-fluoro-2-methyl-4-phenylsulfanylphenyl)-N-methylmethanimidamide] | 1.53 |  | ≥ 70% |
| CCN(C)C=Nc1cc(C)c(S(=O)(=O)c2ccccc2C)cc1Br [Example I-065, N'-[2-bromo-5-methyl-4-(2-methylphenyl)sulfonylphenyl]-N-ethyl-N-methylmethanimidamide] | 1.93 |  |  |
| CCN(C)C=Nc1cc(Br)c(S(=O)(=O)c2ccccc2C#N)cc1C [Example I-070, N'-[5-bromo-4-(2-cyanophenyl)sulfonyl-2-methylphenyl]-N-ethyl-N-methylmethanimidamide] | 1.34 |  |  |
| CCN(C)C=Nc1cc(C)c(S(=O)(=O)c2ccccc2F)cc1Br [Example I-071, N'-[2-bromo-4-(2-fluorophenyl)sulfonyl-5-methylphenyl]-N-ethyl-N-methylmethanimidamide] | 1.81 |  |  |
| CCN(C)C=Nc1cc(C)c(S(=O)(=O)c2ccccc2C)cc1C1CC1 [Example I-072, N'-[2-cyclopropyl-5-methyl-4-(2-methylphenyl)sulfonylphenyl]-N-ethyl-N-methylmethanimidamide] | 1.39 |  |  |
| CCN(C)C=Nc1cc(C)c([S+]([O-])c2ccccc2C)cc1C(C)C (centres unmarked) [Example I-073, N-ethyl-N'-[2-isopropyl-5-methyl-4-(2-methylphenyl)sulfinylphenyl]-N-methylmethanimidamide] | 1.18 |  |  |
| CCN(C)C=Nc1cc(C)c([S+]([O-])c2ccccc2C)cc1C1CC1 (centres unmarked) [Example I-074, N'-[2-cyclopropyl-5-methyl-4-(2-methylphenyl)sulfinylphenyl]-N-ethyl-N-methylmethanimidamide] | 1.07 |  |  |
| CCN(C)C=Nc1cc(C)c([S+]([O-])c2ccccc2)cc1C1CC1 (centres unmarked) [Example I-075, N'-[4-(benzenesulfinyl)-2-cyclopropyl-5-methylphenyl]-N-ethyl-N-methylmethanimidamide] | 0.9 |  |  |
| CCc1cc([S+]([O-])c2ccccc2F)c(C)cc1N=CN(C)CC (centres unmarked) [Example I-076, N-ethyl-N'-[2-ethyl-4-(2-fluorophenyl)sulfinyl-5-methylphenyl]-N-methylmethanimidamide] | 1 |  |  |
| CCN(C)C=Nc1cc(C)c([S+]([O-])c2ccccc2)cc1Br (centres unmarked) [Example I-079, N'-[4-(benzenesulfinyl)-2-bromo-5-methylphenyl]-N-ethyl-N-methylmethanimidamide] | 0.93 |  |  |
| CCN(C)C=Nc1cc(C)c(Sc2ccccc2)cc1Br [Example I-080, N'-(2-bromo-5-methyl-4-phenylsulfanylphenyl)-N-ethyl-N-methylmethanimidamide] | 1.75 |  |  |
| CCc1cc([S+]([O-])c2ccccc2C)c(C)cc1N=CN(C)CC (centres unmarked) [Example I-081, N-ethyl-N'-[2-ethyl-5-methyl-4-(2-methylphenyl)sulfinylphenyl]-N-methylmethanimidamide] | 1.07 |  |  |

Second part, led by results:

| chromatographic logP [1, 3] | chromatographic logP ([1]; method [b]: LC-UV, neutral range, 0.001 molar ammonium acetate solution in water and acetonitrile as eluent (linear gradient 10% to 95% acetonitrile)) | Structure (SMILES) | pest or weed control at 500 ppm [2] |
| --- | --- | --- | --- |
| 2.62 |  | CCN(C)C=Nc1cc(C)c(Sc2ccccc2C)cc1C(F)(F)F [Example I-083, N-ethyl-N-methyl-N'-[5-methyl-4-[(2-methylphenyl)thio]-2-(trifluoromethyl)phenyl]methanimidamide] |  |
| 1.24 |  | CCc1cc(S(=O)(=O)c2ccccc2F)c(C)cc1N=CN(C)CC [Example I-084, N-ethyl-N'-[2-ethyl-4-(2-fluorophenyl)sulfonyl-5-methylphenyl]-N-methylmethanimidamide] |  |
| 1.15 |  | CCN(C)C=Nc1cc(C)c([S+]([O-])c2ccccc2F)cc1C(C)C (centres unmarked) [Example I-086, N-ethyl-N'-[4-(2-fluorophenyl)sulfinyl-2-isopropyl-5-methylphenyl]-N-methylmethanimidamide] |  |
| 2.14 |  | CCN(C)C=Nc1cc(C)c([S+]([O-])c2ccccc2C)cc1C(F)(F)F (centres unmarked) [Example I-088, N-ethyl-N-methyl-N'-[5-methyl-4-(2-methylphenyl)sulfinyl-2-(trifluoromethyl)phenyl]methanimidamide] |  |
| 1.04 |  | CCN(C)C=Nc1cc(C)c([S+]([O-])c2ccccc2F)cc1C1CC1 (centres unmarked) [Example I-089, N'-[2-cyclopropyl-4-(2-fluorophenyl)sulfinyl-5-methylphenyl]-N-ethyl-N-methylmethanimidamide] |  |
| 3.76 |  | CCN(C)C=Nc1cc(C)c(S(=O)(=O)c2ccccc2C)cc1C(F)(F)F [Example I-092, N-ethyl-N-methyl-N'-[5-methyl-4-(2-methylphenyl)sulfonyl-2-(trifluoromethyl)phenyl]methanimidamide] |  |
| 1.45 |  | CCN(C)C=Nc1cc(C)c(S(=O)(=O)c2ccccc2F)cc1C(C)C [Example I-093, N-ethyl-N'-[4-(2-fluorophenyl)sulfonyl-2-isopropyl-5-methylphenyl]-N-methylmethanimidamide] |  |
| 1.58 |  | CCN(C)C=Nc1cc(C)c(S(=O)(=O)c2ccccc2C)cc1C(C)C [Example I-094, N-ethyl-N'-[2-isopropyl-5-methyl-4-(2-methylphenyl)sulfonylphenyl]-N-methylmethanimidamide] |  |
| 1.24 |  | CCN(C)C=Nc1cc(C)c(S(=O)(=O)c2ccccc2)cc1C1CC1 [Example I-095, N'-[4-(benzenesulfonyl)-2-cyclopropyl-5-methylphenyl]-N-ethyl-N-methylmethanimidamide] |  |
| 1.27 |  | CCN(C)C=Nc1cc(C)c(S(=O)(=O)c2ccccc2F)cc1C1CC1 [Example I-096, N'-[2-cyclopropyl-4-(2-fluorophenyl)sulfonyl-5-methylphenyl]-N-ethyl-N-methylmethanimidamide] |  |
| 2.44 | 4.64 | CCN(C)C=Nc1cc(C)c(Sc2ccccc2C#N)cc1C(F)(F)F [Example I-104, N'-[4-[(2-cyanophenyl)thio]-5-methyl-2-(trifluoromethyl)phenyl]-N-ethyl-N-methylmethanimidamide] |  |
